Legend:
Type in all cases: functional
Conditions in all cases: read-out: LC50 (the source's name)
[1] = system: A 172; test: Compound was evaluated for the in vitro cytotoxicity against A-172 human glioblastoma cell line
[2] = system: T98G; test: Compound was evaluated for the in vitro cytotoxicity against T98G human glioblastoma cell line
[3] = system: D283 Med; test: Compound was evaluated for the in vitro cytotoxicity against […] Med human brain medulloblastoma tumor cell line

SMILES | CC50 [1] | CC50 [2] | CC50 [3]
C=C(C)[C@H]1CCN2Cc3ccccc3C[C@H]2[C@H]1NCc1ccc(Cl)cc1 | 55 µM | 42 µM | 29 µM
C=C(C)[C@H]1CCN2Cc3ccccc3C[C@H]2[C@@H]1NCC(F)(F)F | 157 µM | 172 µM | 40 µM
CC(C)[C@H]1CCN2Cc3ccccc3C[C@H]2[C@H]1/N=C/c1ccccc1 | 226 µM | 222 µM | –
CC(C)[C@H]1CCN2Cc3ccccc3C[C@H]2[C@H]1/N=C/c1ccc(Cl)cc1 | 97 µM | 45 µM | 50 µM
C=C(C)[C@H]1CCN2Cc3ccccc3C[C@H]2[C@@H]1NCc1ccccc1 | 58 µM | 43 µM | 53 µM
C=C(C)[C@H]1CCN2Cc3ccccc3C[C@H]2[C@H]1O | 158 µM | – | 143 µM

— ChEMBL document CHEMBL1129227, “Synthesis and in vitro cytotoxic activity of novel hexahydro-2H-pyrido[1,2-b]isoquinolines against human brain tumor cell lines” (1997)
